Laboratory results as given in patent publication US6150366A, “Ziprasidone formulations” (Pfizer Inc., priority 1999, dated 2000).
Structures can show the parent of a compound that is named as a salt.

Tests used:
[1] = cited from earlier work
[2] = cited from earlier work; remark: listed apart in the source
[3] = Dissolution testing in USP-2 apparatus; assay type: physicochemical; details: aqueous media, at or below 85 μm
Method: Usually the test result is established as an average for a pre-determined number of dosages (e.g., capsules, tablets, suspensions, or other dosage form), usually six. The dissolution media is typically maintained at 37° C. during the test. […] The amount of dissolved ziprasidone can be determined conventionally by HPLC, as hereinafter described.
A dosage form can be tested to assess its dissolution profile by dissolution testing it in a USP-2 apparatus. As previously described, the apparatus is implemented to contain 900 ml of 0.05 M NaH2 PO4 buffer, pH 7.5, containing 2% (w/w) sodium dodecyl sulfate. 1% pancreatin may be added if the dosage form being tested is a capsule, as previously noted. The pH can be adjusted as approprate using, for example, 5N NaOH or concentrated phosphoric acid. The USP-2 apparatus is equipped with paddles stirring at 75 rpm. […]
The amount of dissolved ziprasidone can be determined conventionally by HPLC. […] Quantification can be effected facilely by comparison of HPLC peak height (or area) with the peak height (or area) taken from a standard plot of concentration vs. peak height (or area) for standards of known concentration. As is conventional, the ziprasidone standard concentrations are selected to fall within a linear range of concentration vs absorbance for the UV detector employed.

Solubility = assay type: physicochemical

Compound | permeability [1] | aqueous solubility [2] | dependence of dissolution rate on particle size [3] | solubility compared with the acid addition salt (Solubility; near-neutral pH) | solubility (Solubility; slurry in THF/water process)
O=C1Cc2cc(CCN3CCN(c4nsc5ccccc45)CC3)c(Cl)cc2N1 [ziprasidone hydrochloride] | high permeability | relatively poor aqueous solubility | – | – | –
O=C1Cc2cc(CCN3CCN(c4nsc5ccccc45)CC3)c(Cl)cc2N1 [ziprasidone] | – | – | does not vary substantially with particle size | much less soluble | low solubility
